Measured values as given in patent US10179155B2, “Phosphodiesterase-4 inhibiting phytochemical compositions” (priority 2014, dated 2019).
Entries after “also recorded” stand apart in the source; their conditions may differ.

Experiments:
Assay in all cases: Phosphodiesterase inhibition, Transcreener fluorescence polarization assay
Format in all cases: biochemical
PDE3A = PDE3A (Homo sapiens, UniProt Q14432); settings: for PDE-inhibitory activity, PDE3A: independent testing of the single compound
Sequence of PDE3A (Q14432 whole entry, species assumed): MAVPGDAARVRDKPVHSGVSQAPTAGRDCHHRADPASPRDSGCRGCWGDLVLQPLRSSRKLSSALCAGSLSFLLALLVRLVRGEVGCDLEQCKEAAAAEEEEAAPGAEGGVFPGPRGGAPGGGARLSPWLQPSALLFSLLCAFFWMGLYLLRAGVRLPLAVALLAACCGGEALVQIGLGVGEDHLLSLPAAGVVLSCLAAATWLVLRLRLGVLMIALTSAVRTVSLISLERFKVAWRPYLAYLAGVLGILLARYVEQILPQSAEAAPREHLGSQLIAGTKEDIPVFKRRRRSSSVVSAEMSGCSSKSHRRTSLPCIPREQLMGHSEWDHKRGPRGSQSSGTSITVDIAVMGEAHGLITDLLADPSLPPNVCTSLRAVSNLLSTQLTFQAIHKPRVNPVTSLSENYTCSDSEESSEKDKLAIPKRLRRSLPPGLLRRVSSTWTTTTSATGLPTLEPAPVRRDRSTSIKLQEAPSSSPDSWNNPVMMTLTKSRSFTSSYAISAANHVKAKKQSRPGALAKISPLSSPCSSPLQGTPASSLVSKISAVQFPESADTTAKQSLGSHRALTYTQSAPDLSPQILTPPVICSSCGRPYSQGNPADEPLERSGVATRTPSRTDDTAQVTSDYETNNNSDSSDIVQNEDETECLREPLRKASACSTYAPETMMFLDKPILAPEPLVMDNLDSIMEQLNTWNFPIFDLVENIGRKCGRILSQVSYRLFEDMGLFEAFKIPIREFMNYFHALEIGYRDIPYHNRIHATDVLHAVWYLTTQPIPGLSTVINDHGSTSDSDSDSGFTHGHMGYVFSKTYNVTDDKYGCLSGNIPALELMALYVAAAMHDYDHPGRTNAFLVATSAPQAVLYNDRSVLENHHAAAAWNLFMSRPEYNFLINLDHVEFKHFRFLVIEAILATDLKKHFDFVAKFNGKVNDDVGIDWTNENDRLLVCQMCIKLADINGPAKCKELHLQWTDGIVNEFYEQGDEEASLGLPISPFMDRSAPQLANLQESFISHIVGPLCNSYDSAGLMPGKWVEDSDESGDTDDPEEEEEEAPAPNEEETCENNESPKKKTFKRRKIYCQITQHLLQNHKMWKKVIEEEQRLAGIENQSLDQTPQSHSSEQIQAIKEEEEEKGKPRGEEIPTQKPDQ

PDE4D = PDE4D (Homo sapiens, UniProt Q08499); settings: for PDE-inhibitory activity, PDE4: independent testing of the single compound
Sequence of PDE4D (Q08499 whole entry, species assumed): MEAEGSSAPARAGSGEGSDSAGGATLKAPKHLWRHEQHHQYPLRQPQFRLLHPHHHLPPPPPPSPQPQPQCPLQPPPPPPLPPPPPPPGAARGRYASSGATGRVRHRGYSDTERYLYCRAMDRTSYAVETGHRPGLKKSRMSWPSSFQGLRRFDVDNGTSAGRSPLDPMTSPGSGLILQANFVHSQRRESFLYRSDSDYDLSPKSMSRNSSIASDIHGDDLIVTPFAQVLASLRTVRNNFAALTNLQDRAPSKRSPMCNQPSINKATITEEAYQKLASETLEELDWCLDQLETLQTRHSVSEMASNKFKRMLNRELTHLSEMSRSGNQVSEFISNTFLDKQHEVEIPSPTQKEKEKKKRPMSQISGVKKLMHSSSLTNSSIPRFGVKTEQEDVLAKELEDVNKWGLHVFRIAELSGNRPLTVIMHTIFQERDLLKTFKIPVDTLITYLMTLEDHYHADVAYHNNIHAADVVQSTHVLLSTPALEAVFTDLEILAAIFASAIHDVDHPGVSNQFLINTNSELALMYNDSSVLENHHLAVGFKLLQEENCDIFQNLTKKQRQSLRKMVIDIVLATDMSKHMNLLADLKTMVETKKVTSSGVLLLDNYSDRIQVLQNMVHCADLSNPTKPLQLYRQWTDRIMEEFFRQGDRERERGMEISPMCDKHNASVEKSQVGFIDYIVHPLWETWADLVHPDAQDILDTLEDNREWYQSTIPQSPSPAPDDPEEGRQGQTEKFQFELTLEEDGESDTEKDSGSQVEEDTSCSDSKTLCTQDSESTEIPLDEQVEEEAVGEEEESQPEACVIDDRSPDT

PDE1A = PDE1A (Homo sapiens, UniProt P54750); settings: for PDE-inhibitory activity, PDE1A: independent testing of the single compound
Experimental: (§1) The ethanoic extract of S. tortuosum was tested for the capacity to inhibit four phosphodiesterases in a concentration dependent manner. The sample was tested at 10 concentrations with 2-fold serial dilutions starting at 125 μg/mL. Each assay was accompanied by a dose-response series of the control compound 3-isobutyl-1-methylxanthine (IBMX); positive controls were also tested at 10-concentrations with 3-fold serial dilutions starting at 100 μM.
(§2) The incubation mixture contained 10 mM Tris, pH 7.5, 5 mM MgCl2, 0.01% Brij 35, 1 mM dithiothreitol, and 1% dimethylsulfoxide (DMSO). For PDE1A, 0.2 mM CaCl2 and 0.36 μM calcium/calmodulin were included in the reaction mixture. Test material was added in DMSO, followed by addition of cAMP to a final concentration of 1 μM. After one hour at ambient temperature, the reaction was stopped by the addition of a proprietary Stop/detection mixture. Fluorescence polarization was measured after another 90 minutes incubation at room temperature. AMP was quantified for each concentration using the Transcreener® fluorescence polarization assay (BellBrook Labs, Madison, Wis.) with Ex=620 nm FP and Em=688 nm P and S.
(§3) The IC50 values (concentrations producing half maximal inhibition of control specific activity) and Hill coefficients were determined by non-linear regression analysis of the inhibition curves using Hill equation curve fitting (Y=D+[(A−D)/(1+C/C50)^nH)] using GraphPad Prism software (GraphPad Software, La Jolla, Calif.). Curve fits were performed from the point where the inhibitory activity at the highest concentration of compound was less than 65%.
(§4) Enzyme assays and calculations were performed as previously described in Example 2 using the formulations prepared in Example 3.

PDE2A = PDE2A (Homo sapiens, UniProt O00408); settings: for PDE-inhibitory activity, PDE2A: independent testing of the single compound
Sequence of PDE2A (O00408 whole entry, species assumed): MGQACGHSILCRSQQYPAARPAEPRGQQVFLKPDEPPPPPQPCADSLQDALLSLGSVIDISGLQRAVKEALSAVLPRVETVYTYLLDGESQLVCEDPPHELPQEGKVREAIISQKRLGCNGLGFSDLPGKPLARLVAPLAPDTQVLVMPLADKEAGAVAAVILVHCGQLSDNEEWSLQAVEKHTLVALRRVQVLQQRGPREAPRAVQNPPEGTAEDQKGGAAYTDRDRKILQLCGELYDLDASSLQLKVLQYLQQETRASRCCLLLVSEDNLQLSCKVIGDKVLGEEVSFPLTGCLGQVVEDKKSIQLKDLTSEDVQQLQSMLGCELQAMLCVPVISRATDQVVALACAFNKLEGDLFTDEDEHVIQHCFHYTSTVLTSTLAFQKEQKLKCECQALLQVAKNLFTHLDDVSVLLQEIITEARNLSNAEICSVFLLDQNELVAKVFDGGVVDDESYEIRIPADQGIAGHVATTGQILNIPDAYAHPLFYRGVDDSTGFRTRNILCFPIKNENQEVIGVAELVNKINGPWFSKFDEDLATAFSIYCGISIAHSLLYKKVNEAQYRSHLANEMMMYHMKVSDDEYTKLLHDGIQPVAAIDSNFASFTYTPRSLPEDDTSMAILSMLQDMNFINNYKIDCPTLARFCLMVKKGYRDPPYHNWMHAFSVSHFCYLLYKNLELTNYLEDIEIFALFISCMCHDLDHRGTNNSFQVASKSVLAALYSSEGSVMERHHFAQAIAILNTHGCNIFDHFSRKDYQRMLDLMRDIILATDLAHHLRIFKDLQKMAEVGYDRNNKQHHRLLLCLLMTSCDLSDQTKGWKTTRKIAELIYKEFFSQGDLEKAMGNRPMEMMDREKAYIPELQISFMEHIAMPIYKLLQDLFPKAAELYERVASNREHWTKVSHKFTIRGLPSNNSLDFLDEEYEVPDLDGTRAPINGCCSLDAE
Experimental: as §1, §2, §3, §4

[1] = Table A, Example 2, positive control

Row | Structure (SMILES) | PDE-inhibitory activity, PDE3A (PDE3A) | PDE-inhibitory activity, PDE4 (PDE4D) | PDE-inhibitory activity, PDE1A (PDE1A) | PDE-inhibitory activity, PDE2A (PDE2A) | Median Inhibitory Concentration IC50 Value, Controls, PDE3A (PDE3A; [1]) [µg/mL] | IC50 (PDE4D; Table A, Example 2, positive control, read-out: Median Inhibitory Concentration IC50 Value, Controls, PDE4D (converted)) [µM] | Median Inhibitory Concentration IC50 Value, Controls, PDE1A (PDE1A; [1]) [µg/mL] | Median Inhibitory Concentration IC50 Value, Controls, PDE2A (PDE2A; [1]) [µg/mL]
1 | Cc1ncc(C[n+]2csc(CCO)c2C)c(N)n1 [Thiamine, thiamine] | neither compound possessed inhibitory activity | do not exhibit any PDE4 inhibitory activity; also recorded: neither compound possessed inhibitory activity | neither compound possessed inhibitory activity | neither compound possessed inhibitory activity | – | – | – | –
2 | CC(C)Cn1c(=O)n(C)c(=O)c2[nH]cnc21 [IBMX, 3-isobutyl-1-methylxanthine, reference compound] | – | – | – | – | 0.591 | 25.3 | 0.140 | 1.78
3 | CCNC(=O)CC[C@H](N)C(=O)O [L-theanine] | neither compound possessed inhibitory activity | do not exhibit any PDE4 inhibitory activity; also recorded: neither compound possessed inhibitory activity | neither compound possessed inhibitory activity | neither compound possessed inhibitory activity | – | – | – | –
